In ChEMBL document CHEMBL1142608, “A ceramide and cerebroside from the starfish asterias amurensis Lütken and their plant-growth promotion activities” (J Nat Prod, 2006) one finds Activity data, which are given here for 6 compounds.

Active and inactive are the calls of the source. The rule behind the calls is not given here.

Test [1] deals with Brassica rapa subsp. oleifera. Description: Growth-promoting activity in Brassica campestris assessed as whole body growth at 25 degC after 1 week by filter paper assay under 12 hrs/12 hrs light-dark cycle condition. The class given is functional, organism-based.
The subject of test [2] is Brassica rapa subsp. oleifera. Description: Growth-promoting activity in Brassica campestris assessed as root growth at 25 degC after 1 week by filter paper assay under 12 hrs/12 hrs light-dark cycle condition. The class given is functional, organism-based.

Turning to `CCCCCCCC/C=C\CCCCCC/C=C/[C@@H](O)[C@H](CO[C@@H]1O[C@H](CO)[C@@H](O)[C@H](O)[C@H]1O)NC(=O)[C@H](O)CCCCCCCCCCCCCC`, in test [1], the outcome was Active.
The same measure, in the same setting: with `CC(C)CC(=O)C[C@@](C)(O)[C@H]1CC[C@H]2[C@@H]3C[C@H](O[C@@H]4O[C@H](C)[C@@H](O)[C@H](O[C@@H]5OC[C@@H](O[C@@H]6O[C@H](CO)[C@H](O)[C@H](O)[C@H]6O[C@@H]6O[C@H](C)[C@@H](O)[C@H](O)[C@H]6O)[C@H](O)[C@H]5O[C@H]5O[C@@H](C)[C@H](O)[C@@H](O)[C@@H]5O)[C@H]4O)[C@H]4C[C@@H](OS(=O)(=O)O)CC[C@]4(C)C3=CC[C@@]21C` the entry was “inactive”.
Still for that read-out and setting: then `CCCCCCCC/C=C\CCCCCCC/C=C/[C@@H](O)[C@H](CO[C@@H]1O[C@H](CO)[C@@H](O)[C@H](O)[C@H]1O)NC(=O)[C@H](O)CCCCCCCCCCCC`, with “Active”.
Regarding `CCCCCCCC/C=C\CCCCCCCC[C@@H](O)[C@@H](O)[C@H](CO)NC(=O)[C@H](O)CCCCCCCCCCCCCC`, the result in test [2] was Active.
With `CC(C)CC(=O)C[C@@](C)(O)[C@H]1CC[C@H]2[C@@H]3C[C@H](O[C@@H]4O[C@H](C)C(=O)[C@H](O[C@@H]5O[C@H](C)[C@@H](O[C@@H]6O[C@H](C)[C@H](O)[C@H](O)[C@H]6O[C@@H]6O[C@H](C)[C@H](O)[C@H](O)[C@H]6O)[C@H](O)[C@H]5O[C@@H]5O[C@H](C)[C@@H](O)[C@H](O)[C@H]5O)[C@H]4O)[C@H]4C[C@@H](OS(=O)(=O)O)CC[C@]4(C)C3=CC[C@@]21C`, the outcome in test [1] was inactive.
On the same count and under the same terms, then `CCCCCCCC/C=C\CCCCCCC/C=C/[C@@H](O)[C@H](CO[C@@H]1O[C@H](CO)[C@@H](O)[C@H](O)[C@H]1O)NC(=O)[C@H](O)CCCCCCCCCCCCC`, with “Active”.
